Test results taken from US11337971B2, “Dopamine D3 receptor selective antagonists/partial agonists and uses thereof” (THE UNITED STATES OF AMERICA, AS REPRESENTED BY THE …, priority 2018, dated 2022).
“Also recorded” adds a separate entry of the source. Like-named read-outs stand apart in the source and are kept apart here.

Assays:
[1] = biological target: human D3R (Homo sapiens (Human), UniProt P35462); test: Radioligand competition binding, [3H]N-methylspiperone, HEK293 membranes expressing human D3R; conditions: for Ki: read-out: D3R Ki ± SEM; for D2/D3: ratio of Ki values
human D3R, sequence (P35462 whole entry): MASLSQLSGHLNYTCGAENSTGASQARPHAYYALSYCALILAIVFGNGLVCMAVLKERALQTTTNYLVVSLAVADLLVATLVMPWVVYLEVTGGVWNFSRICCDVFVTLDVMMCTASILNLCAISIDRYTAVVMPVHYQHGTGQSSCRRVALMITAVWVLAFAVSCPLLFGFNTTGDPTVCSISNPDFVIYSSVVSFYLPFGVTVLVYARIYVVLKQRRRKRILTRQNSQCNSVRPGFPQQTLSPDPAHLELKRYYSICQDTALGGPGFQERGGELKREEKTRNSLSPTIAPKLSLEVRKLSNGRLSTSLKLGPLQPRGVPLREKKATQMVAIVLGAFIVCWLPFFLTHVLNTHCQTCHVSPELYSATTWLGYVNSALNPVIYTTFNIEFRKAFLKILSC
How it was run: (§1)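 HEK293 membranes (10 μg protein) incubated 1 h at room temperature in EBSS with 0.2 mM sodium metabisulfite, 0.4 nM [3H]N-methylspiperone and compound (10 μM to 10 pM, triplicate). Nonspecific binding defined with 10 μM butaclamol; GF/B filtration.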

[2] = biological target: human dopamine D3R (Homo sapiens (Human), UniProt P35462); test: D3R mitogenesis assay: stimulation or inhibition of quinpirole-stimulated mitogenesis in CHO cells; assay type: cell-based; conditions: for IC50: inhibition of quinpirole-stimulated mitogenesis
human dopamine D3R, sequence (P35462 whole entry): as above

[3] = biological target: 5-HT2C (Homo sapiens (Human), UniProt P28335); test: 5-HT2C [125I]DOI binding; conditions: read-out: 5-HT2C [125I]DOI Ki ± SEM
5-HT2C, sequence (P28335 33-458, species assumed): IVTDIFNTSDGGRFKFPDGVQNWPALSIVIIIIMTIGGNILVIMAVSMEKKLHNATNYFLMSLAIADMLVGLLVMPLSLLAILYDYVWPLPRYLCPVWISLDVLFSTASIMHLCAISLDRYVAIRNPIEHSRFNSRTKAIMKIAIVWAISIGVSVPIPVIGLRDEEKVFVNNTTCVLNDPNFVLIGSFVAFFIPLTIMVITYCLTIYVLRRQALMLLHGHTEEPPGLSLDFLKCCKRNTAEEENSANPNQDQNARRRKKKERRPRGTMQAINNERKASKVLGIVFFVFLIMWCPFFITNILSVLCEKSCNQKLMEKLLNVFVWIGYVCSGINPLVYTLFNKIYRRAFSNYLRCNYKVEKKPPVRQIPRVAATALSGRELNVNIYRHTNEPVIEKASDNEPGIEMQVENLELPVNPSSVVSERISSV

[4] = biological target: T1, 5-HT1A (Homo sapiens (Human), UniProt P08908); test: 5-HT1A [35S]GTPγS binding functional assay; assay type: biochemical
T1 sequence (P08908 whole entry, species assumed): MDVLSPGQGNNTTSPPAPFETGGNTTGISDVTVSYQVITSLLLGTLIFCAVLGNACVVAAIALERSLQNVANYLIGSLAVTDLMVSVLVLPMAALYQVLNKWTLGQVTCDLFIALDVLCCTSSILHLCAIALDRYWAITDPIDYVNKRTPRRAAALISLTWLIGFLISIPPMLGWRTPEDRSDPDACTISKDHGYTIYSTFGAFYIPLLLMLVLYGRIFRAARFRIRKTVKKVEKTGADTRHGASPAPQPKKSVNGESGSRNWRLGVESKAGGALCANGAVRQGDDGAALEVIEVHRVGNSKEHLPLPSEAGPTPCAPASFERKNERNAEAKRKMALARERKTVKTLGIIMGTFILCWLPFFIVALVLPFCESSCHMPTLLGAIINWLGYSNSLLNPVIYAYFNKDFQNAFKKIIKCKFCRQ

[5] = biological target: 5-HT2A (Homo sapiens (Human), UniProt P28223); test: 5-HT2A [125I]DOI binding; conditions: read-out: 5-HT2A [125I]DOI Ki ± SEM
5-HT2A, sequence (P28223 whole entry, species assumed): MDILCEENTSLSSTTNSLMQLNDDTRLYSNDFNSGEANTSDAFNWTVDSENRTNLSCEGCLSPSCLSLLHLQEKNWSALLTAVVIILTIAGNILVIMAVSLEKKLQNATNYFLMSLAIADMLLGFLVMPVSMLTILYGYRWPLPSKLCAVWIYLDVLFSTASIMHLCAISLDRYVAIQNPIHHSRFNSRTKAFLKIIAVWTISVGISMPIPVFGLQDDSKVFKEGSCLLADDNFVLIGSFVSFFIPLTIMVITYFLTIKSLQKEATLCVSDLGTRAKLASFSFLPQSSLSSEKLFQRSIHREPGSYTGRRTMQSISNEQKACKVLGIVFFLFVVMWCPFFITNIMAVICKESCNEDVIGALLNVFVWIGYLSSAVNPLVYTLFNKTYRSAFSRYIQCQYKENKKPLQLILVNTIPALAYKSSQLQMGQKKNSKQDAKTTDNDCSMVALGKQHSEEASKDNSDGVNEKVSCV

[6] = biological target: human D2R (Homo sapiens (Human), UniProt P14416); test: Radioligand competition binding, [3H]N-methylspiperone, HEK293 membranes expressing human D2R; conditions: read-out: D2R Ki ± SEM
human D2R, sequence (P14416 whole entry): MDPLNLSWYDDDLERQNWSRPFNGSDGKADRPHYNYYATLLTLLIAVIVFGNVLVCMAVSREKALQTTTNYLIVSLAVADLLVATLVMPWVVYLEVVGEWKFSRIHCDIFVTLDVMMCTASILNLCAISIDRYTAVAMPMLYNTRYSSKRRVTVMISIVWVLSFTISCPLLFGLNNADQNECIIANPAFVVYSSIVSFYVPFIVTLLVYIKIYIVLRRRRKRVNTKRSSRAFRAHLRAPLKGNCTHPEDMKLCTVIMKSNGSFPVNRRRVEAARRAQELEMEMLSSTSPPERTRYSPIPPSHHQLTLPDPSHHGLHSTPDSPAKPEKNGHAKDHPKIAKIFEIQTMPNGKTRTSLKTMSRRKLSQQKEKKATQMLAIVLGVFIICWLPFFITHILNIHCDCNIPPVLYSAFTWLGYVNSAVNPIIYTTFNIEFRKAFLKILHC
How it was run: as §1

[7] = Phase I metabolic stability in rat liver microsomes; assay type: in vitro ADME; conditions: phase I metabolic stability in rat liver microsomes
Source text: Rat Liver Microsome Metabolic Stability: Test compounds including 3-F analogues (C4a, C4b, C5a, C5b) and 29, 19 as well as the R-, S-enantiomers of C4a, C5a, 29 and 19 were screened for phase I metabolic stability in rat liver microsomes.

[8] = biological target: T1, 5-HT1A; test: 5-HT1A [3H]-8-OH-DPAT binding; conditions: read-out: 5-HT1A [3H]-8-OH-DPAT Ki ± SEM
[9] = in vivo; set-up: species or system rat; conditions: rat, in vivo, po, 10 mg/kg; for AUC(0-t) / Cmax: male, Long-Evans
Experimental: Male Long-Evans rats with body weights ˜250 grams (Charles River Laboratories, Raleigh, N.C., USA) were used in this study. […] Food and water were available ad libitum throughout the experiments. All experimental procedures were conducted in accordance with the Guide for the Care and Use of Laboratory Animals and were approved by the Animal Care and Use Committee of the National Institute on Drug Abuse of the U.S. National Institutes of Health.
Experimental (oral gavage) procedures: The animals were gently restrained (grasp the animal by the loose skin of the neck and back) to immobilize the head but not such that the animals vocalize or show other signs of distress. Maintained the animal in an upright (vertical) position and passed the gavage needle (19-gauge) along the side of the mouth. Following the roof of the mouth, advanced the needle into the esophagus and toward the stomach. After the needle was passed to the correct length, the compound was injected. Then, the animals were deeply anesthetized with 100 mg/kg pentobarbital (i.p.), and then blood (˜1 ml) was obtained via cardiac puncture and brain was dissected at different time points (15 min, 30 min, 60 min, 2 h, 4 h, and 8 h, n=3 rats per time point) after oral drug administration.
These solutions were stored at −20° C. Losartan (IS) was dissolved in DMSO at 10 mM concentration that was further diluted in acetonitrile to obtain a final concentration of 500 nM and the solutions were stored at −20° C.
Standard Curve and Quality Control (QC) Sample Preparation: Standard curve plasma samples were prepared using naïve rat plasma, by serial dilution of the stock solution, with 8 standards and 4 QCs, ranging from 10-50,000 pmol/mL.
Standard curve brain samples were prepared using naïve rat brain. The tissue was homogenized in acetonitrile (Dilution Factor; DF=3), crushed, and centrifuged at 10,000 rpm for 10 minutes. The resulting supernatant was used as the standard curve matrix. The standard curve was subsequently prepared by serial dilution of the stock solution, with 7 standards and 4 QCs, ranging from 30-50000 pmol/mL.
Extraction Procedure: Test compounds were extracted from plasma samples by protein precipitation using acetonitrile. Compounds were extracted from brain samples by placing weighed tissue into 2 times w/v of acetonitrile (DF=3), crushed, centrifuged at 10,000 rpm for 10 minutes, and the resultant supernatant was used as the sample solution. Briefly standards, QCs, and samples (25 μL) were mixed with 100 μL acetonitrile containing 0.5 μM Losartan (internal standard; IS) in low retention microcentrifuge tubes. The mixture was vortexed for 1 min and centrifuged at 10,000 rpm for 10 min at 5° C. 50 μL of supernatant was transferred to a 250 μL polypropylene autosampler vials and mixed with 50 μL water, and sealed with a Teflon cap. A volume of 3 μL was injected onto the ultra-performance liquid chromatography (UPLC) instrument for quantitative analysis using a temperature-controlled autosampler operating at 10° C.
Calibration curves for all test compounds were computed using the ratio of the peak area of analyte to the internal standard by using a quadratic regression with 1/× weighting. The parameters of each calibration curve were used to back-calculate concentrations and to obtain values for the QC samples and unknown samples by interpolation.

[10] = biological target: human D4R (Homo sapiens (Human), UniProt P21917); test: Radioligand competition binding, [3H]N-methylspiperone, HEK293 membranes expressing human D4R; conditions: Table 1A
human D4R, sequence (P21917 whole entry): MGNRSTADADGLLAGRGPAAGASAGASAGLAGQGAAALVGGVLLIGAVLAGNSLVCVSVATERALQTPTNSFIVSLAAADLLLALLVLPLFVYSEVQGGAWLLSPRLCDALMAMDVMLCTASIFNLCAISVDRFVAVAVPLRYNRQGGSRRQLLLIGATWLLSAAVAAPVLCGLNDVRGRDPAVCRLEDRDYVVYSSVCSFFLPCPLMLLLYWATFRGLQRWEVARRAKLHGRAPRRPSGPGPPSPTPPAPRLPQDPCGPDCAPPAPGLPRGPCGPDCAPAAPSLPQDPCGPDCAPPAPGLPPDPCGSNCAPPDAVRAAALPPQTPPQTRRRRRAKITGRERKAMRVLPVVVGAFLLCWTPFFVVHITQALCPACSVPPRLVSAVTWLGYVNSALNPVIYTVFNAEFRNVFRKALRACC
How it was run: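 HEK293 membranes with human D4R (20 μg protein) and 0.4 nM [3H]N-methylspiperone in EBSS with sodium metabisulfite, 1 h at room temperature, filtration read-out. Compounds 10 μM to 10 pM; nonspecific binding with 10 μM butaclamol. Ki by Cheng-Prusoff from IC50, at least three experiments.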

[11] = tested on: Male Long-Evans rats; test: Hot plate test of oxycodone-induced antinociceptive response in rats; assay type: in vivo, rat; conditions: oxycodone in vehicle pretreated group
Experimental: Nociceptive tests were performed using a hot plate device (Model 39, IITC Life Science Inc., Woodland Hills, Calif., USA). The rat was put inside a transparent cage on the hot plate (52±0.2° C.). When thermal nociceptive signs such as licking, stomping the hind paw, or jumping from the plate appeared, the rat was immediately removed from the cage. […] The cut-off time for the test was 60 s to avoid tissue damage.
These experiments involved 8 groups of rats (n=8-9/group) in 2 series of repeated testing: 4 groups were used to test the effects of compound (±)-29 pretreatment on the time course of antinociception induced by oxycodone at a single dose, and another 4 groups were used to test the effects of compound (±)-29 pretreatment on the antinociception induced by various oxycodone doses. Each rat was first habituated to the testing environment for 1 h, followed by placement on the hot plate without treatment to obtain baseline response latencies. The groups in the time course test received baseline testing. Then, group 1 was pretreated with vehicle, and the other 3 groups were pretreated with a dose of compound (±)-29 (5, 15 or 25 mg/kg, i.p.). Fifteen min following the pretreatment, each rat was challenged with a saline injection (1 ml/kg) and, 30 min later, tested for the second time on the hot plate. On the next day, each group received the same pretreatment as on day 1, but challenged with oxycodone (2 mg/kg, i.p.), and each rat was then tested again at 30-, 60- and 120-min following oxycodone challenge. […] Data were calculated as % of maximum percentage effect (% MPE) using the formula: (treatment value−basal value)/(cutoff value−basal value)×100.
Methods: Compound (±)-29 was administered 15 minutes before saline or oxycodone challenge at 5 mg/kg, 15 mg/kg, and 25 mg/kg. […] The rat was then immediately removed from the hot plate and the time latency was recorded.

[12] = tested on: Male Long-Evans rats; conditions: Rice et al, 2012; cited from earlier work
[13] = tested on: opioid-induced conditioned place preference; conditions: Ashby et al, 2003; cited from earlier work
[14] = tested on: rhesus monkeys; test: Thermal tail withdrawal model of oxycodone antinociception in rhesus monkeys; assay type: in vivo, rhesus monkey; conditions: FIG. 6B
[15] = Table 3b, read-out: 5-HT1A [35S]GTPγS binding Agonist EC50 ± SEM
[16] = Table 1B, [3H]-N-methylspiperone competition, D2LR, 96-well plates
[17] = Table 1A, HEK 293 cells transfected with hD3R, [3H]N-methylspiperone

Structure (SMILES): CCc1cccc(N2CCN(CC(F)CCNC(=O)c3cc4ccccc4o3)CC2)c1Cl (racemic) [Compound C5b, N-(4-(4-(2-chloro-3-ethylphenyl)piperazin-1-yl)-3-fluorobutyl)benzofuran-2-carboxamide]
- Ki ([1]; Table 1B, [3H]-N-methylspiperone competition, 96-well plates): 2.09 ± 0.484 nM
- D2/D3 ([1]; Table 1B): 141
- D2/D3 ([1]; Table 1C): 134
- Ki ([1]; Table 1C): 2.45 ± 0.51 nM
- IC50 ([2]; Table 2b, read-out: Antagonist IC50 ± S.E.M.): 450 ± 160 nM
- Ki ([3]; Table 3b): 464 ± 36 nM
- EC50 [4, 15]: 351 ± 84 nM
- Ki ([5]; Table 3b): 336 ± 19 nM
- Ki [6, 16]: 295 ± 30.1 nM
- Ki ([6]; Table 1C): 328 ± 33.5 nM
- % intact/parent remaining [7]: 34%
- Ki ([8]; Table 3b): 117 ± 14 nM

Structure (SMILES): CCc1cccc(N2CCN(C[C@H](O)CCNC(=O)c3cc4ccccc4[nH]3)CC2)c1Cl [(R)-19, (R)-N-(4-(4-(2-chloro-3-ethylphenyl)piperazin-1-yl)-3-hydroxybutyl)-1H-indole-2-carboxamide]
- D3R functional efficacy (antagonist / partial agonist) ([2]; quinpirole-stimulated mitogenesis in CHO cells): D3R antagonists
- Ki ([3]; Table 3b): 50 ± 13 nM
- EC50 [4, 15]: 1050 ± 260 nM
- Ki ([5]; Table 3b): 21.3 ± 6.6 nM
- Ki [6, 16]: 68.1 ± 12.3 nM
- Ki ([6]; Table 1C): 75.8 ± 13.7 nM
- AUC(0-t) [9]: 1.99 ± 0.279 µM·h
- Cmax [9]: 306 ± 113 nM
- brain exposure (AUC0-t) [9]: 21608 ± 1411 pmol·h/g
- brain penetration [9]: highly brain penetrable
- Ki ([8]; Table 3b): 248 ± 18 nM

Structure (SMILES): CCc1cccc(N2CCN(C[C@@H](O)CCNC(=O)c3cc4ccccc4[nH]3)CC2)c1Cl [(S)-19, (S)-N-(4-(4-(2-chloro-3-ethylphenyl)piperazin-1-yl)-3-hydroxybutyl)-1H-indole-2-carboxamide]
- Ki ([3]; Table 3b): 1110 ± 360 nM
- EC50 [4, 15]: 2060 ± 580 nM
- Ki ([5]; Table 3b): 940 ± 130 nM
- Ki [6, 16]: 200 ± 57.9 nM
- Ki ([6]; Table 1C): 219 ± 66.2 nM
- AUC(0-t) [9]: 2.68 ± 0.208 µM·h
- Cmax [9]: 601 ± 108 nM
- brain exposure (AUC0-t) [9]: 16665 ± 1205 pmol·h/g
- brain penetration [9]: highly brain penetrable
- Ki ([8]; Table 3b): 131 ± 12 nM

Structure (SMILES): CCc1cccc(N2CCN(CC(O)CCNC(=O)c3cc4ccccc4o3)CC2)c1Cl (centres unmarked) [Compound 21, N-(4-(4-(2-Chloro-3-ethylphenyl)piperazin-1-yl)-3-hydroxybutyl)benzofuran-2-carboxamide]
- D3R Ki ± SEM (nM) [1, 17]: subnanomolar
- Ki [1, 17]: 0.985 ± 0.105 nM
- D2/D3 ([1]; Table 1A): 166
- IC50 ([2]; Table 2a, read-out: Antagonist IC50 ± SEM): 230 ± 27 nM
- EC50 ([2]; Table 2a, stimulation of mitogenesis, read-out: Agonist EC50 ± SEM): 196 ± 64 nM
- Ki ([3]; Table 3a): 89 ± 22 nM
- EC50 ([4]; Table 3a, read-out: 5HT1A [35S]GTPγS binding Agonist EC50 ± SEM): 118 ± 39 nM
- Ki ([5]; Table 3a): 3.2 ± 1.1 nM
- Ki ([6]; Table 1A, HEK 293 cells transfected with hD2LR, [3H]N-methylspiperone): 164 ± 32.4 nM
- Ki ([10]; [3H]N-methylspiperone, read-out: D4R Ki ± SEM): 2380 ± 110 nM
- D4/D2 ([10]; ratio of Ki values): 15
- D4/D3 ([10]; ratio of Ki values): 2417
- Ki ([8]; Table 3a): 27.6 ± 5.3 nM

Structure (SMILES): COc1ccc2c3c1O[C@H]1C(=O)CC[C@@]4(O)[C@@H](C2)N(C)CC[C@]314 [Oxycodone, reference compound]
- % MPE, hot plate [11]: significantly increased % MPE; also recorded: dose-dependently increased MPE %

Structure (SMILES): N#Cc1ccc2c(c1)CCN(CCC1CCC(NC(=O)c3ccnc4ccccc34)CC1)C2 (centres unmarked) [SB-277011A]
- CPA induced by naloxone-precipitated withdrawal [12]: significantly blocked CPA induced by naloxone-precipitated withdrawal
- opioid-induced conditioned place preference [13]: significantly inhibiting opioid-induced conditioned place preference

Structure (SMILES): O=C1CC[C@@]2(O)[C@H]3Cc4ccc(O)c5c4[C@@]2(CCN3CC2CC2)[C@H]1O5 [naltrexone, reference compound]
- effect on oxycodone antinociception [14]: deleterious effects on oxycodone antinociception
